Experimental data reported in patent US10829731B2, “Biocatalysts for conversion of thermochemical waste streams” (Alliance for Sustainable Energy, LLC, priority 2018, dated 2020).

What follows are molecules tested on P. putida KT2440 (assay: microbe, parasite or virus in culture). Conditions: Pseudomonas putida, KT2440.
Assay type: cell-based
Description: Toxicity of the TC wastewater streams and toxic compounds present in FPS were evaluated in microplate growth assays performed in a Bioscreen C MBR analyzer (Growth Curves US, Piscataway, N.J.). Pre-cultures of the strains were prepared by inoculating 25 mL M9 medium supplemented with 20 mM glucose in a 125 mL baffled flask to an OD600 of 0.05-0.1 and incubating shaking at 225 rpm, 30° C. At mid log phase (OD600 0.5-1.0), cells were harvested by centrifugation at 13,000 rpm, and the cell pellets were washed twice and resuspended in M9 medium without a carbon source. These resuspended cells were used to inoculate microplate wells containing 200 μL of M9 medium supplemented with 20 mM glucose and various concentrations of TC wastewater streams or their components to OD600 0.1. Microplates were then incubated at 30° C. with maximum shaking and growth was measured by reading the absorbance (OD420-580) every 30 minutes. Growth rates were calculated according to the growth curve equation.
The compounds present in the FPF stream were classified according to chemical functionality, aldehydes, ketones, phenolics, or acids, and the growth rate of P. putida was evaluated against each class of compounds.

Row | Compound | EC50
1 | CC=O [Acetaldehyde] | 16.2 mM
2 | CC(C)=O [Acetone] | 39.3 mM
3 | C=CC(=O)O [Acrylic acid] | 11.7 mM
4 | Oc1ccccc1O [Catechol] | 42.4 mM
5 | C/C=C/C=O [Crotonaldehyde] | 17.4 mM
6 | O=CC=O [Glyoxal] | 3.5 mM
7 | CC(=O)CCO [Methylolacetone] | 28.8 mM
8 | Cc1cccc(O)c1 [m-Cresol] | 3.46 mM
9 | Cc1ccccc1O [o-Cresol] | 3.12 mM

Same assay, conditions: Pseudomonas putida, KT2440, effective concentration that decreases the growth rate by 50%; M9 medium with 20 mM glucose, 30° C.

Row | Compound | EC50
10 | C=O [Formaldehyde] | ~2 mM
11 | Oc1ccccc1 [Phenol] | 9.24 mM

Same assay, conditions: Pseudomonas putida, KT2440, effective concentration that decreases the growth rate by 50%; M9 medium with 20 mM glucose, 30° C.; read-out: EC50

Row | Compound | EC50
12 | Cc1ccc(C)c(O)c1 [2,5-Xylenol] | 2.52 mM
13 | O=C1C=CCO1 [2-Butenolide] | 7.77 mM
14 | CC1=CCOC1=O [2-Methyl-butenolide] | 5.02 mM
15 | CCC(=O)CO [2-Oxobutanol] | 27.8 mM
16 | O=Cc1ccoc1 [3-Furancarboxaldehyde] | 13.9 mM
17 | O=Cc1ccc(CO)o1 [5-HMF, 5-(Hydroxymethyl)furfural] | 14.3 mM
18 | CC(=O)O [Acetic acid] | 64.1 mM
19 | CCCC(=O)O [Butanoic acid] | 35.2 mM
20 | O=Cc1ccco1 [Furfural] | 21 mM
21 | O=CCO [Glycolaldehyde] | ~2 mM
22 | COc1ccccc1O [Guaiacol] | 13.3 mM
23 | C=C(CC(=O)O)C(=O)O [Itaconic acid] | 89.4 mM
24 | CCC(=O)O [Propionic acid] | 22.4 mM
25 | COc1cccc(OC)c1O [Syringol] | 4.21 mM
26 | COc1cc(C=O)ccc1O [Vanillin] | 6.34 mM
27 | Cc1ccc(O)cc1 [p-Cresol] | 2.25 mM

Same assay, conditions: effective concentration that decreases the growth rate by 50%; M9 medium with 20 mM glucose, 30° C.

Row | Compound | EC50
28 | C=O [Formaldehyde] | 2.07 mM

Same assay, conditions: effective concentration that decreases the growth rate by 50%; M9 medium with 20 mM glucose, 30° C.; read-out: EC50

Row | Compound | EC50
29 | Cc1ccc(C=O)o1 [5-methylfufaral] | 15 mM
30 | CC(=O)CO [Acetol] | 12.4 mM
31 | O=C1CCCC1 [Adipic ketone] | 9.8 mM
32 | O=CCO [Glycolaldehyde] | 2.14 mM

These molecules were tested on GFP-expressing strain of P. putida KT2440 (assay: GFP immunoblot of cell-free extract after GA or FPF treatment). Conditions: GA (2 mM) or FPF (0.05% (v/v)).
Assay type: cell-based, Pseudomonas putida
Excerpt: Aldehydes, the key toxic component of the FPF stream, can confer molecular toxicity via protein damage. Indeed, GA, the major aldehyde present in FPF is a well-known post-translational protein-damaging agent. […] Cell-free extract from these conditions was immunoblotted to detect the presence of GFP. […] Furthermore, GFP inclusion bodies formed in cells treated with GA or FPF, which might be due to misfolding or cross-linking of the GFP protein. […] Thus, in an embodiment, overexpression of chaperones to rescue damaged or misfolded proteins was chosen as a strategy to enhance the tolerance of P. putida to FPF.
The fate of GFP in the LJ014 strain after treatment with FPF was then examined.

Row | Compound | free-GFP level relative to the untreated controls
33 | O=CCO [Glycolaldehyde] | 46.8%
